Several values for one entry are separate records, joined by “and”; a condition that tells them apart may be missing. Equal values may be shown once. Inconclusive results and toxic doses are left out. Rule for the calls: active = survival T/C of 150% or more; inactive = T/C below 125% in these data.
Test system: P388 leukemia ip, CD2F1 mice, survival T/C
Assay: NCI In Vivo Anticancer Drug Screen. Data for tumor model P388 Leukemia (intraperitoneal) in CD2F1 (CDF1) mice
Details: endpoint: median survival time, higher = longer survival
Procedure, shortened: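 Mice carrying the transplanted tumor received test compound or vehicle. Survival was recorded in each group, and the value is the treated-group measurement divided by that of the vehicle-treated control group.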

[1] = dose: 50.0 mg/kg/injection, schedule: Q01DX005 (ip), vehicle: Klucel (hydroxypropylcellulose) (HPC)
[2] = dose: 200.0 mg/kg/injection, schedule: Q01DX005 (ip), vehicle: Klucel (hydroxypropylcellulose) (HPC)
[3] = dose: 100.0 mg/kg/injection, schedule: Q01DX009 (ip), vehicle: Klucel (hydroxypropylcellulose) (HPC)
[4] = dose: 60.0 mg/kg/injection, schedule: Q01DX005 (ip), vehicle: saline with Tween-80
[5] = dose: 120.0 mg/kg/injection, schedule: Q01DX005 (ip), vehicle: saline with Tween-80
[6] = dose: 240.0 mg/kg/injection, schedule: Q01DX005 (ip), vehicle: saline with Tween-80

Measured: T/C

O=C(CNNC(=O)c1ccncc1)Nc1ccc(S(=O)(=O)c2ccc(NC(=O)CNNC(=O)c3ccncc3)cc2)cc1
inactive: dose: 25.0 mg/kg/injection, schedule: Q01DX005 (ip), vehicle: Klucel (hydroxypropylcellulose) (HPC) 89 % of control | [1] 90 % of control and 91 % of control | [2] 86 % of control

CCOC(=O)NC(=O)CNc1ncc([N+](=O)[O-])s1
inactive: dose: 100.0 mg/kg/injection, schedule: Q01DX001 (ip), vehicle: Klucel (hydroxypropylcellulose) (HPC) 100 % of control | dose: 200.0 mg/kg/injection, schedule: Q01DX001 (ip), vehicle: Klucel (hydroxypropylcellulose) (HPC) 108 % of control

CN1C(=O)C(=O)N2c3ccc(Cl)cc3C3(c4ccccc4)N=CC12O3 (configuration not stated)
inactive: dose: 100.0 mg/kg/injection, schedule: Q04DX003 (ip), vehicle: Klucel (hydroxypropylcellulose) (HPC) 109 % of control | dose: 200.0 mg/kg/injection, schedule: Q04DX003 (ip), vehicle: Klucel (hydroxypropylcellulose) (HPC) 112 % of control | dose: 400.0 mg/kg/injection, schedule: Q04DX003 (ip), vehicle: Klucel (hydroxypropylcellulose) (HPC) 113 % of control

Cn1c(N)c(N=O)c(=O)n(C)c1=O
inactive: dose: 90.0 mg/kg/injection, schedule: Q01DX009 (ip), vehicle: saline with Tween-80 90 % of control | dose: 180.0 mg/kg/injection, schedule: Q01DX009 (ip), vehicle: saline with Tween-80 95 % of control | dose: 360.0 mg/kg/injection, schedule: Q01DX009 (ip), vehicle: saline with Tween-80 95 % of control

BrC1CCC(OCc2ccccc2)C(OCc2ccccc2)C1 (configuration not stated)
inactive: dose: 50.0 mg/kg/injection, schedule: Q01DX009 (ip), vehicle: Klucel (hydroxypropylcellulose) (HPC) 100 % of control | [3] 98 % of control | dose: 200.0 mg/kg/injection, schedule: Q01DX009 (ip), vehicle: Klucel (hydroxypropylcellulose) (HPC) 97 % of control

CC(/C=C/c1ccc(O)cc1)=N\NC(N)=O
inactive: dose: 30.0 mg/kg/injection, schedule: Q01DX005 (ip), vehicle: Klucel (hydroxypropylcellulose) (HPC) 103 % of control | dose: 60.0 mg/kg/injection, schedule: Q01DX005 (ip), vehicle: Klucel (hydroxypropylcellulose) (HPC) 99 % of control | dose: 120.0 mg/kg/injection, schedule: Q01DX005 (ip), vehicle: Klucel (hydroxypropylcellulose) (HPC) 104 % of control | dose: 240.0 mg/kg/injection, schedule: Q01DX005 (ip), vehicle: Klucel (hydroxypropylcellulose) (HPC) 101 % of control

O=C(Nc1cc(-c2ccccc2)[nH]n1)c1ccccc1
inactive: [4] 103 % of control | [5] 106 % of control | [6] 100 % of control

COc1cc(CSc2ccccc2)cc(OC)c1N
inactive: [1] 95 % of control | dose: 100.0 mg/kg/injection, schedule: Q01DX005 (ip), vehicle: Klucel (hydroxypropylcellulose) (HPC) 100 % of control | [2] 99 % of control

N#Cc1ncn(Cc2ccccc2)c1N
inactive: dose: 15.0 mg/kg/injection, schedule: Q01DX005 (ip), vehicle: saline with Tween-80 95 % of control | dose: 30.0 mg/kg/injection, schedule: Q01DX005 (ip), vehicle: saline with Tween-80 101 % of control | [4] 105 % of control and 109 % of control

CCCCCC1(C2CCCCO2)NC(=O)NC1=O (configuration not stated)
inactive: dose: 50.0 mg/kg/injection, schedule: Q01DX005 (ip), vehicle: saline with Tween-80 97 % of control | dose: 100.0 mg/kg/injection, schedule: Q01DX005 (ip), vehicle: saline with Tween-80 99 % of control | dose: 200.0 mg/kg/injection, schedule: Q01DX005 (ip), vehicle: saline with Tween-80 91 % of control

COC(=O)c1nc2nnc(N)n2c(-c2ccc(Cl)cc2)c1C
inactive: [4] 100 % of control | [5] 101 % of control | [6] 96 % of control

O=[N+]([O-])c1ccc(Cl)nc1Sc1ncccn1
inactive: dose: 6.25 mg/kg/injection, schedule: Q01DX009 (ip), vehicle: Klucel (hydroxypropylcellulose) (HPC) 96 % of control | dose: 12.5 mg/kg/injection, schedule: Q01DX009 (ip), vehicle: Klucel (hydroxypropylcellulose) (HPC) 91 % of control | dose: 25.0 mg/kg/injection, schedule: Q01DX009 (ip), vehicle: Klucel (hydroxypropylcellulose) (HPC) 104 % of control | [3] 95 % of control

CN(C)c1ccc(/C=C/c2ccnc3cc(Cl)ccc23)cc1
inactive: dose: 12.5 mg/kg/injection, schedule: Q01DX009 (ip), vehicle: saline with Tween-80 106 % of control | dose: 25.0 mg/kg/injection, schedule: Q01DX009 (ip), vehicle: saline with Tween-80 116 % of control | dose: 50.0 mg/kg/injection, schedule: Q01DX009 (ip), vehicle: saline with Tween-80 119 % of control

COC(=O)C1c2cc3c(c(O)c2C(OC2OC(C)C(OC)C(C)(OC)C2OC)CC1(C)O)C(=O)c1c(O)cc2c(c1C3=O)OC1OC2(C)C(OC(C)=O)C(N(C)C)C1OC(C)=O (configuration not stated)
inactive: dose: 3.12 mg/kg/injection, schedule: Q04DX003 (ip), vehicle: other 87 % of control | dose: 6.25 mg/kg/injection, schedule: Q04DX003 (ip), vehicle: other 103 % of control

— PubChem BioAssay AID330 (DTP/NCI, 2004)
